≈ marks a conversion by molar mass, not a printed value. Where “and” joins values, the source holds several entries; their conditions need not be identical. Equal entries are not always repeated. Entries after “also recorded” stand apart in the source; their conditions may differ. Structures can show the parent of a compound that is named as a salt. Where two headings read alike, the source gives them in different places.
Key:
[1] = target: T1, SARS-CoV-2 PLpro (Severe acute respiratory syndrome coronavirus 2, UniProt P0DTD1); assay: biochemical
[2] = target: human USP21 (Homo sapiens, UniProt Q9UK80); assay: biochemical
[3] = tested on: Calu-3 cells; conditions: cited from earlier work
[4] = target: T1, SARS-CoV-2 PLpro; conditions: read-out: IC50 against PLpro; cited from earlier work
[5] = tested on: SARS-CoV-2; conditions: cited from earlier work
[6] = physchem; conditions: kinetic from dmso stock
[7] = tested on: SARS-CoV-2; assay type: cell-based
[8] = in vitro; conditions: human, Caco-2, pH 7.4
[9] = target: T2, SARS-CoV PLpro (Severe acute respiratory syndrome coronavirus, UniProt P0C6X7); assay: biochemical; assay type: binding
[10] = target: T1, SARS-CoV-2 PLpro; assay: biochemical; assay type: binding
[11] = target: T3, MERS-CoV PLpro (Middle East respiratory syndrome-related coronavirus, UniProt K9N7C7); assay: biochemical; assay type: binding
[12] = target: T3, MERS-CoV PLpro; assay: biochemical
[13] = tested on: Caco-2 cell monolayers
[14] = target: T2, SARS-CoV PLpro; assay: biochemical
[15] = tested on: human DUBs (panel of 41 enzymes); assay type: biochemical
[16] = in vitro; conditions: human, microsomes, pH 7.4
[17] = in vitro; conditions: mouse, microsomes, pH 7.4

T3 sequence (K9N7C7 1482-1803 limits assumed): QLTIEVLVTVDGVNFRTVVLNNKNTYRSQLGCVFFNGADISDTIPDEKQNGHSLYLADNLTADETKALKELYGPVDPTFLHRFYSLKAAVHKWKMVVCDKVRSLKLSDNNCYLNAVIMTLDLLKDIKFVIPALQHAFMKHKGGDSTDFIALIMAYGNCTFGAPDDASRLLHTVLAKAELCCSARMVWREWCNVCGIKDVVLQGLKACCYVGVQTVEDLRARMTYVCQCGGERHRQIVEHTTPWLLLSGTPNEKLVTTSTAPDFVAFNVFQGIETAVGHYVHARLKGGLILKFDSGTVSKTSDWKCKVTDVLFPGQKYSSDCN
Chain of human USP21 (Q9UK80 whole entry): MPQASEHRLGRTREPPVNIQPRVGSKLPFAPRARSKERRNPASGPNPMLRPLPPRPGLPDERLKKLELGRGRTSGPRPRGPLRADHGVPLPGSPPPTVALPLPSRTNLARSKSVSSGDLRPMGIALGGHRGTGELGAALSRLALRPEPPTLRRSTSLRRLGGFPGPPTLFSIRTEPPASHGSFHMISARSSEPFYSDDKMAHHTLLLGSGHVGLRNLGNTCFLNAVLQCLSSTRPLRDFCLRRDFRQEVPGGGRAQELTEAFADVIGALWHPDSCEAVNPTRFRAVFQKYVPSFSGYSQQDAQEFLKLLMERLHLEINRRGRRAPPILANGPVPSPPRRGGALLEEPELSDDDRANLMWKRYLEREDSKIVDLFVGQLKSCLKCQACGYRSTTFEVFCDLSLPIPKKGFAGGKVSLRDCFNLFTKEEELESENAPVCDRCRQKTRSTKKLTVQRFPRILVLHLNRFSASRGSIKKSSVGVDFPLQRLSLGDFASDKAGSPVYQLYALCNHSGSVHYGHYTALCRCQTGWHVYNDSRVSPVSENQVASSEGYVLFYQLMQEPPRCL

For `C[C@H](c1cccc2ccccc12)N1CCC(C(=O)NCc2ccc(S(N)(=O)=O)cc2)CC1` [Compound 16, (R)-1-(1-(naphthalen-1-yl)ethyl)-N-(4-sulfamoylbenzyl)piperidine-4-carboxamide formate], the IC50 ([1]; calculated IC50) was 590 nM.

For `COc1cc(CNC(=O)C2CCN(C(C)c3cccc4ccccc34)CC2)ccn1` (stereo not drawn) [rac5c], the IC50 [2] is listed as > 98000 nM, the IC50 ([1]; PLpro IC50) is listed as 790 nM and the “cytotoxicity, no evidence up to” value [3] is listed as > 33 µM. For the same molecule, the IC50 [4] was 600 to 800 nM and the “decrease of SARS-CoV-2 viral titers (TCID50)” value [5] was 2-3 orders of magnitude.

Work on `COc1cc(CNC(=O)C2CCN(C(C)c3csc4ccccc34)CC2)ccn1` (stereo not drawn) [Compound 2, 1-{1-[benzo(b)thiophen-3-yl]ethyl}-N-[(2-methoxypyridin-4-yl)methyl]piperidine-4-carboxamide formate] yielded an IC50 ([1]; calculated IC50) of 4500 nM.

Molecule `C[C@H](c1cccc2ccccc12)N1CCC(C(=O)NCc2ccn(C)c(=O)c2)CC1` [Compound 13, (R)-N-[(1-methyl-2-oxo-1,2-dihydropyridin-4-yl)methyl]-1-[1-(naphthalen-1-yl)ethyl]piperidine-4-carboxamide] has an IC50 ([1]; calculated IC50) of 690 nM.

For `COc1cc(CNCC2CCN([C@H](C)c3cccc4ccccc34)CC2)ccn1.O=CO` [Compound 11, (R)-1-(2-methoxypyridin-4-yl)-N-((1-(1-(naphthalen-1-yl)ethyl)piperidin-4-yl)methyl)methanamine formate], the “loss of potency relative to parent 5c” value [1] was 7 fold and the IC50 ([1]; calculated IC50) was 5700 nM.

For `C[C@H](c1cccc2ccccc12)N1CCC(C(=O)NCc2cccnc2)CC1` [Compound 15, (R)-1-(1-(naphthalen-1-yl)ethyl)-N-(pyridin-3-ylmethyl)piperidine-4-carboxamide], the IC50 ([1]; calculated IC50) was 820 nM.

For `COc1cc(CNC(=O)C2CCN(C(C)c3c(C)sc4ccccc34)CC2)ccn1` (stereo not drawn) [Compound 3, N-[(2-methoxypyridin-4-yl)methyl]-1-{1-[2-methylbenzo(b)thiophen-3-yl]ethyl}piperidine-4-carboxamide], the “potency against SARS-CoV-2 PLpro in words” value (from here on “potency … in words”) [1] was “completely inactive”.

In the case of `CCOc1ccc2ccccc2c1C(C)N1CCC(C(=O)NCc2ccnc(OC)c2)CC1` (stereo not drawn) [Compound 7, 1-[1-(2-ethoxynaphthalen-1-yl)ethyl]-N-[(2-methoxypyridin-4-yl)methyl]piperidine-4-carboxamide], the “potency … in words” value [1] is reported as “not tolerated”.

Molecule `C[C@H](c1cccc2ccccc12)N1CCC(C(=O)NCC2CCOCC2)CC1` [Compound 17, (R)-1-(1-(naphthalen-1-yl)ethyl)-N-((tetrahydro-2H-pyran-4-yl)methyl)piperidine-4-carboxamide] has an IC50 ([1]; calculated IC50) of 1300 nM.

In the case of `COc1cc(CNC(=O)C2CCN([C@H](C)c3cccc4ccccc34)CC2)ccn1` [Compound 5c], the solubility kinetic ([6]; pH 2, aqueous buffer) is reported as > 100 µg/mL, the solubility kinetic ([6]; pH 6.5, aqueous buffer) is reported as 50 to 100 µg/mL (≈ 124 to 248 µM) and the “reduction of viral titer” value [7] is reported as 1 log. For the same molecule, the IC50 ([1]; IC50, SARS-CoV-2) was 720 nM, the IC50 ([1]; calculated IC50) was 860 nM and the Papp A→B [8] was 53 ×10⁻⁶ cm/s. It also gave a Papp B→A [8] of 55 ×10⁻⁶ cm/s, a Kd ([9]; KD Exp1, SARS-CoV) of 833 nM and a Kd ([9]; KD Exp2, SARS-CoV) of 880 nM. The Kd ([9]; KD Exp3, SARS-CoV) was 853 nM, the Kd ([9]; KD, SARS-CoV) was 855 nM and 860 nM and the “Mouse plasma protein binding” value was 86.3 % bound. It also gave a Kd ([10]; KD Exp1, SARS-CoV-2 PLpro WT) of 4110 nM, a Kd ([10]; KD Exp2, SARS-CoV-2 PLpro WT) of 2450 nM and a Kd ([10]; KD Exp3, SARS-CoV-2 PLpro WT) of 2600 nM. The Kd ([10]; KD, SARS-CoV-2) was 3050 ± 920 nM, the Kd [11] was > 20000 nM and the Kd ([11]; read-out: KD Exp1, MERS-CoV) was > 20000 nM. For the same molecule, the Kd ([11]; read-out: KD Exp3, MERS-CoV) was > 20000 nM, the IC50 [12] was > 98000 nM and the “efflux in Caco-2” value [13] was “no evidence of efflux”. The IC50 [14] was 500 nM, the “inhibition of human DUBs” value [15] was “did not inhibit any of the human DUBs tested; also recorded: does not notably inhibit any of the tested human DUBs” and the half-life [16] was 16 min. It also gave a microsomal CLint [16] of 110 µL/min/mg, a half-life [17] of 20 min and a microsomal CLint [17] of 86 µL/min/mg.

For `COc1cc(CNC(=O)C2CCN(C(C)c3ccc(F)c4ccccc34)CC2)ccn1` (stereo not drawn) [Compound 8, 1-[1-(4-fluoronaphthalen-1-yl)ethyl]-N-[(2-methoxypyridin-4-yl)methyl]piperidine-4-carboxamide], the “loss of potency relative to parent 5c” value [1] was 3 fold and the IC50 ([1]; calculated IC50) was 2200 nM.

`COc1cc(CNC(=O)C2CCN(C(C)c3cc(Cl)ccc3OC)CC2)ccn1` (stereo not drawn) [Compound 4, 1-(1-(5-chloro-2-methoxyphenyl)ethyl)-N-((2-methoxypyridin-4-yl)methyl)piperidine-4-carboxamide] gave an IC50 ([1]; calculated IC50) of 4600 nM.

In the case of `COc1cc(CNC(=O)C2CCN(C(C)c3c(OC)ccc4ccccc34)CC2)ccn1.O=CO` (stereo not drawn) [Compound 6, 1-[1-(2-methoxynaphthalen-1-yl)ethyl]-N-[(2-methoxypyridin-4-yl)methyl]piperidine-4-carboxamide formate], the “potency … in words” value [1] is reported as “not tolerated”.

`Cc1ncc(CNC(=O)C2CCN([C@H](C)c3cccc4ccccc34)CC2)s1` [Compound 14, (R)-N-[(2-methylthiazol-5-yl)methyl]-1-(1-(naphthalen-1-yl)ethyl)piperidine-4-carboxamide] gave an IC50 ([1]; calculated IC50) of 710 nM.

In the case of `COc1cc(CNC(=O)C2CCN(C(C)c3cccc(-c4ccccc4)c3)CC2)ccn1` (stereo not drawn) [Compound 1, 1-{1-[(1,1′-biphenyl)-3-yl]ethyl}-N-[(2-methoxypyridin-4-yl)methyl]piperidine-4-carboxamide], the “loss of potency relative to parent 5c” value [1] is reported as 20 fold and the IC50 ([1]; calculated IC50) is reported as 18000 nM.

For `CC(c1cccc2ccccc12)N1CCC(C(=O)NCc2cccc(F)c2)CC1` (stereo not drawn) [rac3k], the IC50 [2] is listed as > 98000 nM, the IC50 ([1]; PLpro IC50) is listed as 1500 nM and the IC50 [4] is listed as 600 to 800 nM. The “decrease of SARS-CoV-2 viral titers (TCID50)” value [5] was 2-3 orders of magnitude.

With `COc1cc(CNC(=O)C2CCN(C(C)c3ccc(OC)c4ccccc34)CC2)ccn1` (stereo not drawn) [Compound 9, 1-[1-(4-methoxynaphthalen-1-yl)ethyl]-N-[(2-methoxypyridin-4-yl)methyl]piperidine-4-carboxamide] the solubility kinetic ([6]; pH 2, aqueous buffer) was > 140 µg/mL, the solubility kinetic ([6]; pH 6.5, aqueous buffer) was 70 to 140 µg/mL (≈ 161 to 323 µM) and the “reduction of viral titer” value [7] was 1 log. For the same molecule, the viral titer [7] was “below the limit of detection”, the IC50 ([1]; IC50, SARS-CoV-2) was 760 nM and the Papp A→B [8] was 46 ×10⁻⁶ cm/s. The Papp B→A [8] was 46 ×10⁻⁶ cm/s, the Kd ([9]; KD Exp1, SARS-CoV) was 805 nM and the Kd ([9]; KD Exp2, SARS-CoV) was 800 nM. For the same molecule, the Kd ([9]; KD Exp3, SARS-CoV) was 840 nM, the Kd ([9]; KD, SARS-CoV) was 815 nM and 820 nM and the “Mouse plasma protein binding” value was 90.1 % bound. It also gave a Kd ([10]; KD Exp1, SARS-CoV-2 PLpro WT) of 1420 nM, a Kd ([10]; KD Exp2, SARS-CoV-2 PLpro WT) of 1820 nM and a Kd ([10]; KD Exp3, SARS-CoV-2 PLpro WT) of 2340 nM. The Kd ([10]; KD, SARS-CoV-2) was 1860 ± 460 nM, the Kd [11] was > 20000 nM and the Kd ([11]; read-out: KD Exp1, MERS-CoV) was > 20000 nM. For the same molecule, the Kd ([11]; read-out: KD Exp3, MERS-CoV) was > 20000 nM, the IC50 [12] was > 98000 nM and the “efflux in Caco-2” value [13] was “no evidence of efflux”. The IC50 [14] was 700 nM, the half-life [16] was 39 min and the microsomal CLint [16] was 45 µL/min/mg. It also gave a half-life [17] of 35 min and a microsomal CLint [17] of 50 µL/min/mg.

With `COc1cc(C(=O)NCC2CCN([C@H](C)c3cccc4ccccc34)CC2)ccn1` [Compound 10, (R)-2-methoxy-N-((1-(1-(naphthalen-1-yl)ethyl)piperidin-4-yl)methyl)isonicotinamide] the “loss of potency relative to parent 5c” value [1] was 4 fold and the IC50 ([1]; calculated IC50) was 3400 nM.

In the case of `C[C@H](c1cccc2ccccc12)N1CCC(C(=O)NCc2cccc(F)c2)CC1` [Compound 3k], the solubility kinetic ([6]; pH 2, aqueous buffer) is reported as > 100 µg/mL, the solubility kinetic ([6]; pH 6.5, aqueous buffer) is reported as 12.5 to 25 µg/mL (≈ 32 to 64 µM) and the “reduction of viral titer” value [7] is reported as 1 log. It also gave an IC50 ([1]; IC50, SARS-CoV-2) of 1020 nM, a Papp A→B [8] of 35 ×10⁻⁶ cm/s and a Papp B→A [8] of 36 ×10⁻⁶ cm/s. The Kd ([9]; KD Exp1, SARS-CoV) was 662 nM, the Kd ([9]; KD Exp2, SARS-CoV) was 795 nM and the Kd ([9]; KD Exp3, SARS-CoV) was 686 nM. The Kd ([9]; KD, SARS-CoV) was 714 nM and 710 nM, the “Mouse plasma protein binding” value was 95.3 % bound and the Kd ([10]; KD Exp1, SARS-CoV-2 PLpro WT) was 2000 nM. The Kd ([10]; KD Exp2, SARS-CoV-2 PLpro WT) was 2350 nM, the Kd ([10]; KD Exp3, SARS-CoV-2 PLpro WT) was 2850 nM and the Kd ([10]; KD, SARS-CoV-2) was 2400 ± 430 nM. For the same molecule, the Kd [11] was > 20000 nM, the Kd ([11]; read-out: KD Exp1, MERS-CoV) was > 20000 nM and the Kd ([11]; read-out: KD Exp3, MERS-CoV) was > 20000 nM. The IC50 [12] was > 98000 nM, the “efflux in Caco-2” value [13] was “no evidence of efflux” and the IC50 [14] was 860 nM. For the same molecule, the half-life [16] was 7 min, the microsomal CLint [16] was 247 µL/min/mg and the half-life [17] was 5 min. It also gave a microsomal CLint [17] of 337 µL/min/mg.

With `CNC(=O)C1CCN([C@H](C)c2cccc3ccccc23)CC1` [Compound 12, (R)-N-methyl-1-(1-(naphthalen-1-yl)ethyl)piperidine-4-carboxamide] the “loss of potency relative to parent 5c” value [1] was 4 fold and the IC50 ([1]; calculated IC50) was 3100 nM.

Work on `CCOc1ccc(Cl)cc1C(C)N1CCC(C(=O)NCc2ccnc(OC)c2)CC1` (stereo not drawn) [Compound 5, 1-[1-(5-chloro-2-ethoxyphenyl)ethyl]-N-[(2-methoxypyridin-4-yl)methyl]piperidine-4-carboxamide] yielded an IC50 ([1]; calculated IC50) of 7900 nM.
